Measured values published in ChEMBL document CHEMBL1201862, “PubChem BioAssay data set” (2004).
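Cultured in 96-well plates, cells were exposed to test compound for 48 hours across five concentrations. Here, GI50 denotes the concentration required for 50% inhibition of growth.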 Activity calls are given as the source filed them. Rule as the data show it: active = GI50 up to about 1.1 µM and inactive = higher.

Key:
Assay in all cases: growth of human tumour cells (NCI), 48 h
UACC-257 = system: UACC-257
SK-OV-3 = system: SK-OV-3
NCI-H522 = system: NCI-H522
OVCAR-3 = system: OVCAR-3
A498 = system: A498
HCC 2998 = system: HCC 2998
HCT-116 = system: HCT-116
EKVX = system: EKVX
NCI-H226 = system: NCI-H226
OVCAR-8 = system: OVCAR-8
MDA-MB-435 = system: MDA-MB-435
K562 = system: K562
NCI-H460 = system: NCI-H460
SN12C = system: SN12C
ACHN = system: ACHN
HT-29 = system: HT-29
SF-295 = system: SF-295
DU-145 = system: DU-145
SK-MEL-28 = system: SK-MEL-28
SF-268 = system: SF-268
CCRF-CEM = system: CCRF-CEM
CAKI-1 = system: CAKI-1
SF-539 = system: SF-539
A549 = system: A549
MOLT-4 = system: MOLT-4
SK-MEL-2 = system: SK-MEL-2
SW-620 = system: SW-620
OVCAR-5 = system: OVCAR-5
SNB-75 = system: SNB-75
NCI/ADR-RES = system: NCI/ADR-RES
Hs-578T = system: Hs-578T
UO-31 = system: UO-31
BT-549 = system: BT-549
HOP-62 = system: HOP-62
RPMI-8226 = system: RPMI-8226
KM12 = system: KM12
Malme-3M = system: Malme-3M
PC-3 = system: PC-3
RXF 393 = system: RXF 393
U-251 = system: U-251
SK-MEL-5 = system: SK-MEL-5
LOX IMVI = system: LOX IMVI
IGROV-1 = system: IGROV-1
HOP-92 = system: HOP-92
HCT-15 = system: HCT-15
HL-60 = system: HL-60
SNB-19 = system: SNB-19
MDA-MB-231 = system: MDA-MB-231
COLO 205 = system: COLO 205
MDA-N = system: MDA-N
NCI-H23 = system: NCI-H23
TK-10 = system: TK-10
UACC-62 = system: UACC-62
OVCAR-4 = system: OVCAR-4
T47D = system: T47D
MCF7 = system: MCF7
786-0 = system: 786-0
M14 = system: M14

## CC1=NN(C(=O)CC(=O)N(C(=O)c2ccccc2)c2ccc(Cl)cc2)C(=O)C1/N=N/c1ccc([N+](=O)[O-])cc1 (stereo not drawn)
UACC-257
  GI50: > 10 µM (inactive)
SK-OV-3
  GI50: > 10 µM (inactive)
NCI-H522
  GI50: > 10 µM (inactive)
OVCAR-3
  GI50: > 10 µM (inactive)
A498
  GI50: > 10 µM (inactive)
HCC 2998
  GI50: > 10 µM (inactive)
HCT-116
  GI50: > 10 µM (inactive)
EKVX
  GI50: > 10 µM (inactive)
NCI-H226
  GI50: > 10 µM (inactive)
OVCAR-8
  GI50: > 10 µM (inactive)
MDA-MB-435
  GI50: > 10 µM (inactive)
K562
  GI50: > 10 µM (inactive)
NCI-H460
  GI50: > 10 µM (inactive)
SN12C
  GI50: > 10 µM (inactive)
ACHN
  GI50: > 10 µM (inactive)
HT-29
  GI50: > 10 µM (inactive)
SF-295
  GI50: > 10 µM (inactive)
DU-145
  GI50: > 10 µM (inactive)
SK-MEL-28
  GI50: > 10 µM (inactive)
SF-268
  GI50: > 10 µM (inactive)
CCRF-CEM
  GI50: > 10 µM (inactive)
CAKI-1
  GI50: > 10 µM (inactive)
SF-539
  GI50: > 10 µM (inactive)
A549
  GI50: > 10 µM (inactive)
MOLT-4
  GI50: 6.49 µM (inactive)
SK-MEL-2
  GI50: > 10 µM (inactive)
SW-620
  GI50: > 10 µM (inactive)
OVCAR-5
  GI50: > 10 µM (inactive)
SNB-75
  GI50: > 10 µM (inactive)
NCI/ADR-RES
  GI50: > 10 µM (inactive)
Hs-578T
  GI50: > 10 µM (inactive)
UO-31
  GI50: > 10 µM (inactive)
BT-549
  GI50: > 10 µM (inactive)
HOP-62
  GI50: > 10 µM (inactive)
RPMI-8226
  GI50: > 10 µM (inactive)
KM12
  GI50: > 10 µM (inactive)
Malme-3M
  GI50: > 10 µM (inactive)
PC-3
  GI50: > 10 µM (inactive)
RXF 393
  GI50: > 10 µM (inactive)
U-251
  GI50: > 10 µM (inactive)
SK-MEL-5
  GI50: > 10 µM (inactive)
LOX IMVI
  GI50: > 10 µM (inactive)
IGROV-1
  GI50: > 10 µM (inactive)
HOP-92
  GI50: > 10 µM (inactive)
HCT-15
  GI50: > 10 µM
HL-60
  GI50: > 10 µM (inactive)
SNB-19
  GI50: > 10 µM (inactive)
MDA-MB-231
  GI50: > 10 µM (inactive)
COLO 205
  GI50: > 10 µM (inactive)
MDA-N
  GI50: > 10 µM (inactive)
NCI-H23
  GI50: > 10 µM (inactive)
TK-10
  GI50: > 10 µM (inactive)
UACC-62
  GI50: > 10 µM (inactive)
OVCAR-4
  GI50: > 10 µM (inactive)
T47D
  GI50: > 10 µM (inactive)
MCF7
  GI50: > 10 µM (inactive)
786-0
  GI50: > 10 µM (inactive)

## N#Cc1nc2cc(Cl)ccc2nc1N1CCN(c2ccc([N+](=O)[O-])cc2)CC1
UACC-257
  GI50: > 100 µM (inactive)
SK-OV-3
  GI50: > 100 µM (inactive)
OVCAR-3
  GI50: > 100 µM (inactive)
A498
  GI50: > 100 µM (inactive)
HCC 2998
  GI50: 18.9 µM (inactive)
M14
  GI50: > 100 µM (inactive)
HCT-116
  GI50: > 100 µM (inactive)
EKVX
  GI50: > 100 µM (inactive)
OVCAR-8
  GI50: > 100 µM (inactive)
MDA-MB-435
  GI50: > 100 µM (inactive)
K562
  GI50: > 100 µM (inactive)
NCI-H460
  GI50: > 100 µM (inactive)
SN12C
  GI50: > 100 µM (inactive)
ACHN
  GI50: > 100 µM (inactive)
HT-29
  GI50: > 100 µM (inactive)
SF-295
  GI50: > 100 µM (inactive)
DU-145
  GI50: > 100 µM (inactive)
SK-MEL-28
  GI50: > 100 µM (inactive)
SF-268
  GI50: > 100 µM (inactive)
CAKI-1
  GI50: > 100 µM (inactive)
SF-539
  GI50: > 100 µM (inactive)
A549
  GI50: > 100 µM (inactive)
MOLT-4
  GI50: > 100 µM (inactive)
SW-620
  GI50: > 100 µM (inactive)
OVCAR-5
  GI50: > 100 µM (inactive)
SNB-75
  GI50: > 100 µM (inactive)
NCI/ADR-RES
  GI50: > 100 µM (inactive)
Hs-578T
  GI50: > 100 µM (inactive)
UO-31
  GI50: > 100 µM (inactive)
BT-549
  GI50: > 100 µM (inactive)
HOP-62
  GI50: > 100 µM (inactive)
RPMI-8226
  GI50: > 100 µM (inactive)
KM12
  GI50: > 100 µM (inactive)
PC-3
  GI50: > 100 µM (inactive)
RXF 393
  GI50: > 100 µM (inactive)
U-251
  GI50: > 100 µM (inactive)
SK-MEL-5
  GI50: > 100 µM (inactive)
HCT-15
  GI50: > 100 µM
SNB-19
  GI50: > 100 µM (inactive)
MDA-MB-231
  GI50: > 100 µM (inactive)
COLO 205
  GI50: > 100 µM (inactive)
MDA-N
  GI50: > 100 µM (inactive)
NCI-H23
  GI50: > 100 µM (inactive)
TK-10
  GI50: > 100 µM (inactive)
UACC-62
  GI50: > 100 µM (inactive)
OVCAR-4
  GI50: > 100 µM (inactive)
T47D
  GI50: > 100 µM (inactive)
MCF7
  GI50: > 100 µM (inactive)
786-0
  GI50: > 100 µM (inactive)

## Cc1nc2c(=O)n3c4c(cccc4c2o1)CCC3
UACC-257
  GI50: > 100 µM (inactive)
SK-OV-3
  GI50: > 100 µM (inactive)
OVCAR-3
  GI50: > 100 µM (inactive)
A498
  GI50: > 100 µM (inactive)
HCC 2998
  GI50: > 100 µM (inactive)
M14
  GI50: > 100 µM (inactive)
HCT-116
  GI50: 43.5 µM (inactive)
EKVX
  GI50: 76.6 µM (inactive)
NCI-H226
  GI50: > 100 µM (inactive)
OVCAR-8
  GI50: > 100 µM (inactive)
MDA-MB-435
  GI50: > 100 µM (inactive)
K562
  GI50: 72.8 µM (inactive)
NCI-H460
  GI50: 78 µM (inactive)
SN12C
  GI50: > 100 µM (inactive)
ACHN
  GI50: > 100 µM (inactive)
HT-29
  GI50: 76 µM (inactive)
SF-295
  GI50: > 100 µM (inactive)
DU-145
  GI50: > 100 µM (inactive)
SK-MEL-28
  GI50: > 100 µM (inactive)
SF-268
  GI50: > 100 µM (inactive)
CCRF-CEM
  GI50: > 100 µM (inactive)
CAKI-1
  GI50: > 100 µM (inactive)
SF-539
  GI50: 73.5 µM (inactive)
A549
  GI50: > 100 µM (inactive)
MOLT-4
  GI50: 37.9 µM (inactive)
SK-MEL-2
  GI50: > 100 µM (inactive)
SW-620
  GI50: > 100 µM (inactive)
OVCAR-5
  GI50: > 100 µM (inactive)
SNB-75
  GI50: > 100 µM (inactive)
NCI/ADR-RES
  GI50: > 100 µM (inactive)
Hs-578T
  GI50: > 100 µM (inactive)
UO-31
  GI50: > 100 µM (inactive)
BT-549
  GI50: > 100 µM (inactive)
HOP-62
  GI50: > 100 µM (inactive)
RPMI-8226
  GI50: > 100 µM (inactive)
KM12
  GI50: > 100 µM (inactive)
Malme-3M
  GI50: > 100 µM (inactive)
PC-3
  GI50: 45.9 µM (inactive)
RXF 393
  GI50: > 100 µM (inactive)
U-251
  GI50: 96.8 µM (inactive)
SK-MEL-5
  GI50: > 100 µM (inactive)
LOX IMVI
  GI50: > 100 µM (inactive)
IGROV-1
  GI50: 76.6 µM (inactive)
HOP-92
  GI50: > 100 µM (inactive)
HCT-15
  GI50: 49.4 µM
HL-60
  GI50: > 100 µM (inactive)
SNB-19
  GI50: > 100 µM (inactive)
MDA-MB-231
  GI50: > 100 µM (inactive)
COLO 205
  GI50: > 100 µM (inactive)
MDA-N
  GI50: > 100 µM (inactive)
NCI-H23
  GI50: > 100 µM (inactive)
TK-10
  GI50: > 100 µM (inactive)
UACC-62
  GI50: > 100 µM (inactive)
OVCAR-4
  GI50: > 100 µM (inactive)
T47D
  GI50: > 100 µM (inactive)
MCF7
  GI50: > 100 µM (inactive)
786-0
  GI50: > 100 µM (inactive)
